{"source": "patent US20260193642A1", "about": "“DIRECT MEASUREMENT OF ENGINEERED CANCER MUTATIONS AND THEIR TRANSCRIPTIONAL PHENOTYPES IN SINGLE CELLS” (The Board of Trustees of the Leland Stanford Junior …, priority 2022, published 2026)", "key": {"p53 pathway": {"test_system": "p53 pathway", "settings": "U2OS cells (wild-type TP53); 10 μM nutlin-3a; 5 μM, 10 μM and 20 μM tested", "from_the_text": "Cell culture conditions: HEK293T (ATCC CRL-11268) and MMNK-1 (JCRB1554) cells were maintained in Dulbecco's modified Eagle's medium (DMEM) with 10% fetal bovine serum (FBS). HCT116 (ATCC CCL-247) cells and U2OS (ATCC HTB-96) were maintained in McCoy's 5A modified medium supplemented with 10% FBS. […] K562 (ATCC CCL-243) cells were maintained in RPMI 1640 with 10% FBS. Cells were authenticated by STR profiling. All cell lines were confirmed by PCR to be free of mycoplasma contamination.\nHCT116 and U2OS human cell lines were used for this study. Both cell lines have wild-type TP53 which was independently confirmed."}, "HCT116 cells": {"test_system": "HCT116 cells", "assay": "Cell cycle analysis, EdU and propidium iodide flow cytometry assay", "format": "cell-based, human", "settings": "24 hrs nutlin-3a treatment", "experimental": "Cell cycle analysis: Click-iT™ Plus EdU Alexa Fluor™ 488 Flow Cytometry Assay Kit (Life technologies) was used according to manufacturer's protocol. Briefly, cells were plated a day prior to nutlin-3a or vehicle treatment. After 24 hrs of chemical treatment, cells in S-phase were labeled with […] EdU solution for 2 hrs. FxCycle™ PI/RNase Staining Solution (Life technologies) was used for PI staining. After the staining, cells were analyzed by NovoCyte Quanteon Flow Cytometer Systems (Agilent, Santa Clara, CA, USA).\nThe PI assay detects total DNA amounts for G1 and G2-phase comparison. The EdU assay labels newly synthesized DNA to detect S-phase."}}}
{"smiles": "COc1ccc(C2=N[C@@H](c3ccc(Cl)cc3)[C@@H](c3ccc(Cl)cc3)N2C(=O)N2CCNC(=O)C2)c(OC(C)C)c1", "note": "[nutlin-3a]", "values": [{"measurement": "p53 pathway activation", "setting": "p53 pathway", "result": "successful p53 pathway activation"}, {"measurement": "cell cycle arrest", "setting": "HCT116 cells; HCT116 clonal cells with TP53 I195T mutation, FIG. 4C, P=0.95", "result": "did not undergo arrest"}, {"measurement": "cell cycle arrest", "setting": "HCT116 cells; HCT116 clonal cells with TP53 Y220C mutation, FIG. 4C, P=0.95", "result": "did not undergo arrest"}, {"measurement": "cell cycle arrest", "setting": "HCT116 cells; wild-type HCT116 cells, FIG. 4c, P<2.2e-16", "result": "arrested"}]}
